Data from article PMC11352273, “The Proapoptotic Action of Pyrrolidinedione–Thiazolidinone Hybrids towards Human Breast Carcinoma Cells Does Not Depend on Their Genotype” (Cancers, 2024).

Assays:
[1] = tested on: MDA-MB-231, 4T1, MCF-7, T-47D, and HCC1954 cells; test: MTT assay, summary over breast carcinoma cell lines; assay type: cell-based
Procedure: The MCF-7 and MDA-MB-231 cells were cultured in the DMEM medium containing 10% of the FBS, HCC1954, T-47D, and 4T1 cells in the RPMI-1640 medium with the addition of 10% of the FBS, and MCF-10A cells in MEGM Mammary Epithelial Cell Growth Medium BulletKit supplemented with penicillin/streptomycin cocktail and 5% of horse serum. The cells were cultured in a […] atmosphere at 5% CO2 and 37 °C. After trypsinization, cells were counted using a Scepter 3.0 handheld automated cell counter (Millipore, Burlington, MA, USA).
The MTT test was used to assess the metabolic activity of cells treated with the investigated substances following the Sigma-Aldrich manufacturer’s instructions. Briefly, compounds were added in 100 µL of the cultural medium, and cells were incubated for the next 24 and 48 h. Doxorubicin was used as a reference drug. The DMSO was added to dissolve the crystals of formazan. We used the ThermoScientific Evolution 201 UV–VIS spectrophotometer (ThermoFisher Scientific, Waltham, MA, USA) to measure the absorbance of formazan at 570 nm. The initial value of the relative number of cells in control (under 0.1% of the DMSO) was accepted as 100%. We used GraphPad Prism Version 9 to calculate the half-maximal inhibition concentration (IC50) of the studied compounds (the concentration of the drug that reduced cell viability by 50%).

LC3B in MDA-MB-231 cells = test: LC3B ELISA in cell lysates; assay type: cell-based, human; conditions: MDA-MB-231, 24 h, 2 μM; control 698.25 ng/mL
Procedure: (§1) In order to determine the Beclin-1 concentration in the cell lysates, the SimpleStep ELISA (Abcam, Cambridge, UK) Kit was used. MMP-2, MMP-9, and ICAM-1 concentrations were measured in culture supernatants using high-sensitivity human SimpleStep ELISA kits (Abcam, Cambridge, UK) according to the manufacturer’s protocols. The LC3B ELISA kit (BT LAB, Shanghai, China) was used to check the protein concentration in cell lysates from analyzed breast cancer cells. The procedure for preparing the samples was shown previously.

LC3B in MCF-7 cells = test: LC3B ELISA in cell lysates; assay type: cell-based, human; conditions: MCF-7, 24 h, compound concentration not stated; control 574.84 ng/mL
Procedure: as §1

[2] = tested on: caspase 8 in MDA-MB-231 cells; test: Caspase-8 activity, FAM-FLICA flow cytometry; assay type: cell-based, human; conditions: MDA-MB-231, 24 h
Procedure: (§3) The assay was performed following the manufacturer’s instructions and the previously described methodology [25]. […] The cells were gathered, rinsed twice with chilled PBS, and reconstituted in an Apoptosis Wash Buffer. Then, 10 µL of freshly diluted FLICA solution was added to 290 µL of cell suspension and incubated for an hour at 37 °C. Following two rounds of washing with 2 mL of Apoptosis Wash Buffer, the cells were centrifuged, resuspended in 300 µL of the buffer, and then analyzed [25].

[3] = tested on: caspase 3/7 in MDA-MB-231 cells; test: Caspase-3/7 activity, FAM-FLICA flow cytometry; conditions: MDA-MB-231, 24 h
Procedure: as §3

MDA-MB-231 cells = test: JC-1 mitochondrial membrane potential flow cytometry; assay type: cell-based, human; conditions: MDA-MB-231, 24 h
Procedure: (§2) The JC-1 MitoScreen kit (BD Pharmigen, San Diego, CA, USA) and a flow cytometer (BD FACSCanto II) were used to detect the decrease in mitochondrial membrane potential (MMP, ΔΨm) under the action of the studied compounds. […] Following washing, the cells were further suspended in 0.5 mL of buffer with 10 µg/mL JC-1 and incubated for 15 min at room temperature in the dark. Then, cells were washed twice with buffer, resuspended in 300 µL PBS, and analyzed.

MCF-7 cells = test: as above; assay type: cell-based, human; conditions: MCF-7, 24 h
Procedure: as §2

[4] = tested on: mitogen-activated lymphocytes collected from the peripheral blood of a healthy donor; set-up: method as in PMID 37579525; conditions: cited from earlier work
[5] = tested on: MCF-7, MDA-MB-231, and HCC1954 cell lines; test: [3H]-thymidine incorporation assay, summary over cancer cell lines; assay type: cell-based; conditions: Homo sapiens; 24 h, MCF-7, MDA-MB-231, HCC1954; read-out: IC50 of DNA synthesis inhibition, range over cell lines
Procedure: Following a 24 h cell treatment, the incorporation of [^3H]-thymidine into the DNA of the breast tumor and normal cells was used to measure the antiproliferative activity of Les-6287. The MCF-7, MDA-MB-231, HCC1954, and MCF-10A cells were seeded into six-well plates (density 3 × 10^5 cells/well) and cultured for 24 h. Then, they were incubated under the same conditions for the next 24 h with a growth medium containing the tested compounds and reference drug (doxorubicin) at different concentrations (1, 2.5, 5, 10, 50 µM). After 24 h, the medium was changed to a fresh one without FBS. A total of 0.5 µCi of tritium-labeled thymidine (specific activity: 7 Ci/mmol) was added to cells for 4 h. The cells were washed with 1 mL of 0.05 M Tris-HCl buffer pH 7.4 containing 0.11 M NaCl and 1 mL of 5% trichloroacetic acid (TCA). Each well was filled with 1 mL of a 0.1 M NaOH solution containing 1% SDS to complete cell lysis. After 5 min, the acquired cell lysates were put into scintillation vials and pre-filled with two milliliters of scintillation liquid. The Scintillation Counter 1900 TR, TRI-CARB (Packard, Perkin Elmer, Inc., San Jose, CA, USA) was used to record the results. The effect of compounds on DNA synthesis was expressed as % of the control (non-treated cells).

Beclin-1 in MCF-7 cells = test: Beclin-1 ELISA in cell lysates; assay type: cell-based, human; conditions: MCF-7, 24 h, 2 μM; untreated control 4.08 ng/mL
Procedure: as §1

[6] = tested on: Beclin-1 in MDA-MB-231 cells; test: Beclin-1 ELISA in cell lysates; assay type: cell-based, human; conditions: MDA-MB-231, 24 h, 2 μM; untreated control 11.79 ng/mL
Procedure: as §1

caspase 9 in MCF-7 cells = test: Caspase-9 activity, FAM-FLICA flow cytometry; assay type: cell-based, human; conditions: MCF-7, 24 h
Procedure: as §3

[7] = tested on: caspase 10 in MDA-MB-231 cells; test: Caspase-10 activity, FAM-FLICA flow cytometry; assay type: cell-based, human; conditions: MDA-MB-231, 24 h
[8] = tested on: caspase 10 in MCF-7 cells; test: Caspase-10 activity, FAM-FLICA flow cytometry; assay type: cell-based, human; conditions: MCF-7, 24 h
[9] = tested on: caspase 9 in MDA-MB-231 cells; test: Caspase-9 activity, FAM-FLICA flow cytometry; assay type: cell-based, human; conditions: MDA-MB-231, 24 h
Procedure: as §3

IC50 ([1]; Breast carcinoma cell, 24 and 48 h, all five cancer cell lines and all three hybrids together, read-out: IC50, range over breast carcinoma cell lines): 1.37 to 21.9 µM | IC50 [5]: 2.32 to 3.67 µM
SMILES: O=C1CC(N2C(=O)C(=CC(Cl)=Cc3ccc([N+](=O)[O-])cc3)SC2=S)C(=O)N1c1ccc(O)cc1 (stereo not drawn) [Les-6287, 1-(4-hydroxyphenyl)-3-[5-[2-chloro-3-(4-nitrophenyl)prop-2-enylidene]-4-oxo-2-thioxothiazolidine-3-yl]pyrrolidine-2,5-dione]
selectivity index (SI = IC50 for MCF-10A/IC50 for human breast tumor cells) ([1]; range over cell lines and time points): 24.10–47.13 | concentration of LC3B (LC3B in MDA-MB-231 cells): 483.50 ng/mL | concentration of LC3B (LC3B in MCF-7 cells): 537.74 ng/mL | cells with active caspase 8 ([2]; 1 µM): 18.23 ± 0.62% | cells with active caspase 8 ([2]; 1.5 µM): 23.50 ± 1.03% | cells with active caspase 3/7 ([3]; 1 µM): 17.20 ± 1.58% | cells with active caspase 3/7 ([3]; 1.5 µM): 26.63 ± 8.32% | cells with decreased mitochondrial membrane potential (ΔΨm) (MDA-MB-231 cells; 1 µM): 3.75 ± 1.34% | cells with decreased mitochondrial membrane potential (ΔΨm) (MDA-MB-231 cells; 1.5 µM): 17.85 ± 3.46% | cells with decreased mitochondrial membrane potential (ΔΨm) (MCF-7 cells; 1 µM): 21.00 ± 1.20% | cells with decreased mitochondrial membrane potential (ΔΨm) (MCF-7 cells; 1.5 µM): 38.85 ± 3.46% | IC50 [4]: 29 to 67 µM | concentration of Beclin-1 (Beclin-1 in MCF-7 cells): 2.78 ng/mL | concentration of Beclin-1 [6]: 9.83 ng/mL | cells with active caspase 9 (caspase 9 in MCF-7 cells; 1 µM): 24.40 ± 0.98% | cells with active caspase 9 (caspase 9 in MCF-7 cells; 1.5 µM): 36.45 ± 1.05% | cells with active caspase 10 ([7]; 1 µM): 14.48 ± 2.53% | cells with active caspase 10 ([7]; 1.5 µM): 19.78 ± 0.80% | cells with active caspase 10 ([8]; 1 µM): 11.58 ± 2.30% | cells with active caspase 10 ([8]; 1.5 µM): 20.50 ± 1.49% | cells with active caspase 9 ([9]; 1 µM): 15.30 ± 0.80% | cells with active caspase 9 ([9]; 1.5 µM): 21.88 ± 2.00%
